Measured values reported in paper PMC10657973 (Journal of Pharmaceutical Analysis, 2023).
Entries after “also recorded” stand apart in the source; their conditions may differ. Blank lines part the entries; values can stand above or below the compound they belong to.

How the values were obtained:
rMRP4 [1] = format: in vivo, rats
rOAT1/3 = test: rOAT1/3−/− rat experiment; format: in vivo, rats
[2] = format: in vivo, rats
P-gp = test: Specificity: uptake in P-gp-overexpressing cells; format: cell-based; settings: uptake in overexpressing cells vs control, 4 mM ATP
OAT4 = test: Specificity: uptake in OAT4-overexpressing cells; format: cell-based
MRP2 = test: Accumulation of kynurenic acid in MRP2-overexpressing cells; format: cell-based; settings: Fig. S15
MRP4 = test: Intracellular accumulation of UTs in MRP4-overexpressing cells; format: cell-based, human; settings: 100 μM, 30 min
rMRP4 [3] = format: in vivo, rats; remark: listed apart in the source
[4] = system: OAT1/3 and MRP4 double-transfected MDCK cells; settings: 37 °C
OAT3 [5] = target: T1, OAT3 (Homo sapiens, UniProt Q8TCC7); test: Uptake of UTs in HEK293T-OAT3 cells; format: cell-based; settings: 100 μM, 30 min; for uptake of HSA-bound UT in OAT3-overexpressing cells vs control cells / uptake of free UT in OAT3-overexpressing cells vs control cells: 37 °C; for uptake of HSA-bound UT in OAT3-overexpressing cells vs control cells: with HSA; for uptake of free UT in OAT3-overexpressing cells vs control cells: without HSA
T1 sequence (Q8TCC7 1-542): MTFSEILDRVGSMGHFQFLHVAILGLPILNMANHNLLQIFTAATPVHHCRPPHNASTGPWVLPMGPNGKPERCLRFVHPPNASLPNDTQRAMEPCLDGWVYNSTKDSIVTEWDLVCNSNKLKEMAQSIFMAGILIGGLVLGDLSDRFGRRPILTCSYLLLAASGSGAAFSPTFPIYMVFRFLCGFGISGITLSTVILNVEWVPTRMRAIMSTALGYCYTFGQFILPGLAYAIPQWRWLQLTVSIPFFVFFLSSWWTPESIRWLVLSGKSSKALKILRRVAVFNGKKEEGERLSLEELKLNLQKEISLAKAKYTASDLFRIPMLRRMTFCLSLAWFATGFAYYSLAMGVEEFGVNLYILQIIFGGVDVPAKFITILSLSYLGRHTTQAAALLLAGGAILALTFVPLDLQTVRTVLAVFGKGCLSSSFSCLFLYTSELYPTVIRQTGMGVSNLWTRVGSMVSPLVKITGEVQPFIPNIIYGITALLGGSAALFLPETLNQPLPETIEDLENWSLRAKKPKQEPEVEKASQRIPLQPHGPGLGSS

OAT1 [6] = target: T2, OAT1 (Homo sapiens, UniProt Q4U2R8); test: Transport kinetics of UTs in HEK293T-OAT1 cells; format: cell-based
T2 sequence (Q4U2R8 1-563): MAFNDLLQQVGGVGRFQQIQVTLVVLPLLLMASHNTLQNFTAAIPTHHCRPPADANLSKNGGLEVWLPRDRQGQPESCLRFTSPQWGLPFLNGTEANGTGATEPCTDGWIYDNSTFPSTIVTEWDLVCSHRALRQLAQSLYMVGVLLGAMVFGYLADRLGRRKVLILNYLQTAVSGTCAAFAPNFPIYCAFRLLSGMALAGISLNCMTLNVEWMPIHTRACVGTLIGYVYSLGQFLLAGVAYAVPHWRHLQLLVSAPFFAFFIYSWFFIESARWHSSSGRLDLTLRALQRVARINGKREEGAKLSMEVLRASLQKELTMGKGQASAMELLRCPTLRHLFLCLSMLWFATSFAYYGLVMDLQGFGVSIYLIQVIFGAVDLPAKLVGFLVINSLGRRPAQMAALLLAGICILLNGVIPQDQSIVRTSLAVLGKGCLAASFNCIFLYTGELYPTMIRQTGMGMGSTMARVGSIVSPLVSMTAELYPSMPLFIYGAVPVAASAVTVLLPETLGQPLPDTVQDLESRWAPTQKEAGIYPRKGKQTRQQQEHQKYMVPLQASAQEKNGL

rOATs = rOATs inhibition experiment
[7] = Correlation between biomarkers and cefmetazole pharmacokinetics in rats; format: in vivo
OAT1 [8] = target: T2, OAT1; test: Uptake of UTs in HEK293T-OAT1 cells; format: cell-based; settings: 100 μM, 30 min; for uptake of HSA-bound UT in OAT1-overexpressing cells vs control cells / uptake of free UT in OAT1-overexpressing cells vs control cells: 37 °C; for uptake of HSA-bound UT in OAT1-overexpressing cells vs control cells: with HSA; for uptake of free UT in OAT1-overexpressing cells vs control cells: without HSA
OATP4C1 = test: Specificity: uptake in OATP4C1-overexpressing cells; format: cell-based; settings: uptake in overexpressing cells vs control
OAT2 = test: Specificity: uptake in OAT2-overexpressing cells; format: cell-based; settings: uptake in overexpressing cells vs control
MATE2-K = test: Specificity: uptake in MATE2-K-overexpressing cells; format: cell-based; settings: uptake in overexpressing cells vs control, pH 8.0
MATE1 = test: Specificity: uptake in MATE1-overexpressing cells; format: cell-based; settings: uptake in overexpressing cells vs control, pH 8.0
URAT1 = test: Specificity: uptake in URAT1-overexpressing cells; format: cell-based; settings: uptake in overexpressing cells vs control
OAT3 [9] = target: T1, OAT3; test: Transport kinetics of UTs in HEK293T-OAT3 cells; format: cell-based; settings: read-out: Km of OAT3-mediated uptake; HEK293T-OAT3, Michaelis-Menten
OCT2 = test: Specificity: uptake in OCT2-overexpressing cells; format: cell-based; settings: uptake in overexpressing cells vs control
PEPT2 = test: Specificity: uptake in PEPT2-overexpressing cells; format: cell-based; settings: uptake in overexpressing cells vs control

- efflux from hepatocytes into the blood after rMRP4−/− (rMRP4 [1]; Fig. S9): hindered
- renal clearance rate in rMRP4−/− rats vs WT (rMRP4 [1]; rat, in vivo): did not change significantly
- renal tissue concentration in rMRP4−/− rats vs WT (rMRP4 [1]; rat, in vivo): unaffected
- serum levels in rMRP4−/− rats vs WT (rMRP4 [1]; rat, in vivo): did not change significantly
- renal clearance rate in rOAT1/3−/− rats vs WT (rOAT1/3; rat, in vivo): significantly decreased
- serum levels in rOAT1/3−/− rats vs WT (rOAT1/3; rat, in vivo): significantly increased
- half-life ([2]; rat, urine, iv, 2 mg/kg): 3.7 ± 0.7 h
- rate of metabolism to (d4-)xanthurenic acid in vivo ([2]; rats, d5-kynurenic acid 2 mg/kg i.v.): < 12%
- transport mediated by P-gp (P-gp): not mediated
- transport mediated by OAT4 / uptake in OAT4-overexpressing cells vs control (OAT4): not mediated
- substrate of MRP2 (MRP2): potential substrate of MRP2
- uptake at 4 °C in MRP4-overexpressing cells vs control (MRP4): no significant difference
- levels in renal tissues in rats treated with MK-571 vs control (rMRP4 [3]; MK-571 5, 10, 20 mg/kg oral, 7 days): significantly increased
- uptake at 37 °C in OAT3-MRP4 cells vs double control cells [4]: significantly increased
- uptake at 4 °C in OAT3-overexpressing cells vs control (OAT3 [5]): no significant difference
- uptake of HSA-bound UT in OAT3-overexpressing cells vs control cells (OAT3 [5]): dramatically increased
- linear uptake time (OAT1 [6]; HEK293T-OAT1/3 cells, 100 μM): 0 to 10 min
- serum levels in rats treated with PROB vs control (rOATs; PROB 30, 60, 120 mg/kg oral, 7 days): increased
- plasma concentrations in rats treated with PROB ([7]; PROB 60 and 120 mg/kg 7 days, cefmetazole 100 mg/kg i.v.): increased
- correlation of cmax with cefmetazole ([7]; WT and rOAT1/3−/− rats): moderate
- plasma level in rOAT1/3−/− rats vs WT rats ([7]; rat, in vivo): markedly increased
- uptake at 4 °C in OAT1-overexpressing cells vs control (OAT1 [8]): no significant difference
- uptake of HSA-bound UT in OAT1-overexpressing cells vs control cells (OAT1 [8]): dramatically increased
SMILES: O=C(O)c1cc(=O)c2ccccc2[nH]1 [Kynurenic acid, kynurenic acid]
- uptake of free UT in OAT3-overexpressing cells vs control cells (OAT3 [5]): dramatically increased; also recorded: significantly higher
- uptake of free UT in OAT1-overexpressing cells vs control cells (OAT1 [8]): dramatically increased; also recorded: significantly higher

- cumulative excretion, WT rats (rOAT1/3; first value of the printed pair, taken as WT, 12-h urine): 16.16 ± 5.27
- cumulative excretion, rOAT1/3−/− rats (rOAT1/3; second value of the pair, taken as knockout, 12-h urine): 8.56 ± 3.43
- transport mediated by OATP4C1 (OATP4C1): not mediated
- transport mediated by P-gp (P-gp): not mediated
- transport mediated by OAT4 / uptake in OAT4-overexpressing cells vs control (OAT4): not mediated
- transport mediated by OAT2 (OAT2): not mediated
- transport mediated by MATE2-K (MATE2-K): not mediated
- uptake at 4 °C in MRP4-overexpressing cells vs control (MRP4): not significantly different
- transport mediated by MATE1 (MATE1): not mediated
- transport mediated by URAT1 (URAT1): not mediated
- cumulative urinary excretion in rats treated with MK-571 vs control (rMRP4 [3]; MK-571 (CMPF effect at 20 mg/kg)): not affected
- uptake at 4 °C in OAT3-overexpressing cells vs control (OAT3 [5]): not significantly different
- uptake of HSA-bound UT in OAT3-overexpressing cells vs control cells (OAT3 [5]): dramatically increased
- Km (OAT3 [9]): 2.98 mM
- transport mediated by OCT2 (OCT2): not mediated
- Km (OAT1 [6]; read-out: Km of OAT1-mediated uptake, HEK293T-OAT1, Michaelis-Menten): 4.26 mM
- transport mediated by PEPT2 (PEPT2): not mediated
- cumulative urinary excretion in rats treated with PROB vs control (rOATs; 12 h urine): no significant effects
- serum level in vivo (detectability by LC-MS/MS) (rOATs; rats / in vivo): below the detection limit
- uptake at 4 °C in OAT1-overexpressing cells vs control (OAT1 [8]): not significantly different
- uptake of HSA-bound UT in OAT1-overexpressing cells vs control cells (OAT1 [8]): dramatically increased
SMILES: O=C(O)CNC(=O)C=Cc1ccccc1 [N-(cinnamoyl)glycine]
- intracellular accumulation in MRP4-overexpressing cells vs control cells (MRP4; 37 °C, 4 mM ATP): significantly decreased; also recorded: markedly reduced
- uptake of free UT in OAT3-overexpressing cells vs control cells (OAT3 [5]): dramatically increased; also recorded: significantly elevated
- uptake of free UT in OAT1-overexpressing cells vs control cells (OAT1 [8]): dramatically increased; also recorded: significantly elevated
